Laboratory results reported in PMC9428149, “Tackling recalcitrant Pseudomonas aeruginosa infections in critical illness via anti-virulence monotherapy” (Nature Communications, 2022).
In brackets after ≈: the same amount, converted by molar mass. Several values for one entry are separate records, joined by “and”; a condition that tells them apart may be missing. Identical values can stand only once. Like-named read-outs stand apart in the source and are kept apart here.

Assays:
[1] = test system: pqsA promoter (PA14 PpqsA-GFPASV); test: pqsA-GFP reporter expression; assay type: cell-based, Pseudomonas aeruginosa
[2] = test system: PA14 AT/P cells; test: AT/P cells formation assay in PA14; assay type: cell-based, Pseudomonas aeruginosa; conditions: Pseudomonas aeruginosa, PA14, 24 h, read-out: inhibition of AT/P cells formation
[3] = target: T1, MvfR protein (MvfRC87) (Pseudomonas aeruginosa, UniProt Q9I4X0); assay type: binding; conditions: SPR
T1 construct: The MvfRC87 protein purified as in Xiao et. al., 2006; made in house
Method: The selected compounds were tested for their ability to bind to MvfR. Target validation was carried out by using surface plasmon resonance (SPR). The MvfRC87 protein purified as in Xiao et. al., 2006[33] was covalently immobilized on a CM7 Series S sensor chip using an amine coupling reagent kit (GE Healthcare) at the range level of 3000 to 5000 response units (RU). RU was analyzed by Biacore T200 evaluation software 2.0 (GE Healthcare). The relative response units (RUs) 5 seconds before the end of the association were extracted from the double-reference-corrected sensor grams at different concentrations. These responses were plotted against their respective concentrations for MvfR inhibitor alone and in the presence of native MvfR ligand PQS and compared to the calculated responses for the mixture expected for different binding sites.

[4] = Solubility in iPBS pH 7.4 by HPLC; assay type: physicochemical; conditions: isotonic phosphate buffer (iPBS)
Summary of the method: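 Compounds from 10 mM DMSO stock shaken 4 h at room temperature in iPBS pH 7.4 (10 mM PBS, 2.7 mM KCl, 140 mM NaCl, 0.05% Tween), then filtered. Concentration measured by HPLC-UV against a known standard solution; solubility given as ratio of compound in test solution to standard.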

[5] = test system: pyocyanin production in PA14; test: Pyocyanin production assay; conditions: Pseudomonas aeruginosa
[6] = test system: 16 MDR P. aeruginosa clinical isolates; test: Pyocyanin production in MDR clinical isolates; conditions: Pseudomonas aeruginosa, 18 h, Control about 100, replicates
[7] = test system: ΔmvfR biofilm; test: Biofilm formation of ΔmvfR mutant (off-target); conditions: Pseudomonas aeruginosa, PA14, 24 h, read-out: Biofilm formation, ΔmvfR + compound; PA14 about 100; single replicates (Figure 4c)
Method: Biofilm was grown in the 96-well microtiter plate at 37 °C for 24 h containing M63 minimal media in the presence of 10 µM of the compounds or vehicle. The biofilm grown with the vehicle was considered as a control. The percentage value was calculated in comparison to the PA14 control. a–c Data represent at least n = 3, each dot on the graph represents one biological replicate. The number of biological replicates for each compound and strain is depicted in the graph. The error bars denote ±SEM.
The overnight grown starter culture was diluted 1:1000 in 5 mL LB media in a glass tube and was incubated at 37 °C and 200 rpm in an incubator shaker until the culture reached an OD600nm 3.0. The culture was then diluted at 1:100 in M63 minimal media supplemented with 0.2% glucose, 0.5% Casamino Acids, and 1 mM MgSO4. Initiation of the Biofilm formation was performed in the 96 well plates; 200 µL of diluted culture was added in the wells with (10 µM) or without compounds. The cultures were allowed to grow at 37 °C in static conditions for 24 hours. Thereafter, planktonic culture was removed from the wells, and wells were washed three times with distilled water (DW). Biofilm was stained with 0.1% crystal violet and incubated for 15 min at room temperature (RT). Access dye was removed from the wells and washed off three times with DW, and 200 µL ethanol: acetone (80:20) was added to the wells. The plate was incubated for 30 min at RT, and the OD was measured by spectrophotometry at 570 nm in the infinite F200 plate reader using the Magellan software (Tecan, Switzerland). Percent biofilm formation was calculated in comparison to PA14 culture that was grown in the absence of compounds.

[8] = test system: PA14 isogenic mutant ΔmvfR AT/P cells; test: AT/P cell formation in ΔmvfR mutant (off-target); conditions: Pseudomonas aeruginosa, PA14, 24 h, read-out: AT/P cell formation, ΔmvfR + compound; PA14 about 100; single replicates (Figure 4b)
Method: Cells were grown in the presence of 10 μg mL^−1 meropenem, with or without 10 µM of the compounds for 24 h. Values were normalized to cells grown for 4 h in the absence of antibiotics and compounds. The ∆mvfR cells grown with antibiotics and vehicles were considered control, and the percentage values were calculated compared to control. c Biofilm formation of mutant ∆mvfR cells with or without compound. […] The number of biological replicates for each compound and strain is depicted in the graph. The error bars denote ±SEM.
The AT/P cell formation assay was performed according to the method previously described in Starkey et al., 2014 (persister cell assay). The over-day culture was incubated at 37 °C with shaking at 200 rpm until the culture OD600nm was 3.0. The culture was then diluted at 1:100 and grown in the same conditions for 4 h. After 4 h, 200 µL were collected, and serial dilutions were plated on LB agar plates for CFU quantification (as normalizers). The remainder of the culture was treated with meropenem to a final concentration of 100 × MIC (Minimum Inhibitory Concentration; 10 mg L^−1) and compounds at a final concentration of 10 µM. After 24 h, culture aliquots were 10-fold serially diluted in LB broth and plated on LB agar for CFU quantification. The AT/P fraction was determined as the normalizers (pre-antibiotic) ratio divided by the AT/P fraction (24 h post-antibiotic)[22].

[9] = test system: MvfR-regulated small molecules in PA14; test: Production of HAQs, 2-AA, DHQ and AA in PA14 cultures (LC-MS); conditions: for 2-AA / DHQ / HHQ / HQNO / PQS: Figure 5a; for 2-AA / DHQ / HHQ / HQNO / PQS / AA: replicates; for AA: Figure 5b; for activity at 50 µM / IC50 / inhibition at 50 µM: Pseudomonas aeruginosa

T1 sequence (Q9I4X0 87-332): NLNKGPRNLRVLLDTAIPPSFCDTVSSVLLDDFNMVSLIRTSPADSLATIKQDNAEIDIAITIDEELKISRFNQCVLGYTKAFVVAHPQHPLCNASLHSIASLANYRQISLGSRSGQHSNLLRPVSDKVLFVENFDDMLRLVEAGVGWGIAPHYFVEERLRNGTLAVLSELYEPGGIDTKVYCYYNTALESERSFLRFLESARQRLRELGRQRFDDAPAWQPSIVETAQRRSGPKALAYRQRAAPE

N#Cc1ccc(NC(=O)C(F)C(=O)Nc2ccc(Oc3ccccc3)cc2)cc1 (stereo not shown) [D88]
activity at 50 µM ([1]; Pseudomonas aeruginosa, PA14, read-out: % Production pqsA-GFP): 2% | IC50 ([1]; Pseudomonas aeruginosa, PA14, read-out: IC50 pqsA-GFP expression, PA14, 13 concentrations): 1.36 µM | IC50 ([1]; read-out: IC50 pqsA-GFP expression, PA14, 13 concentrations): 1.31 µM | inhibition at 10 µM [2]: ≥ 76% | Response Unit (RU) ([3]; Concentration 1.00E-05 M): 36.6 RU | Response Unit (RU) ([3]; Concentration 1.00E-06 M): 18.2 RU | Response Unit (RU) ([3]; Concentration 1.00E-07 M): 5.5 RU | Response Unit (RU) ([3]; Concentration 1.00E-08 M): 0.4 RU | Response Unit (RU) ([3]; Concentration 3.16E-06 M): 28.1 RU | Response Unit (RU) ([3]; Concentration 3.16E-07 M): 10.5 RU | Response Unit (RU) ([3]; Concentration 3.16E-08 M): 2.3 RU | solubility at 4 h ([4]; aqueous with cosolvent or surfactant or cyclodextrin, kinetic from dmso stock, iPBS pH 7.4, HPLC, read-out: Solubility (M) in PBS): 0.00049 M (≈ 191 µg/mL) | solubility at 4 h ([4]; pH 7.4, HPLC, read-out: solubility): 0.00049 M (≈ 191 µg/mL) | activity at 50 µM ([5]; PA14, 18 h, read-out: % Production Pyocyanin): 6% | IC50 ([5]; PA14, read-out: IC50 pyocyanin production): 0.53 µM | activity at 10 µM ([6]; read-out: Pyocyanin production relative to Control, clinical isolate LGR-4325): 17.1% | activity at 10 µM ([6]; read-out: Pyocyanin production relative to Control, clinical isolate LGR-4326): 8.91% | activity at 10 µM ([6]; read-out: Pyocyanin production relative to Control, clinical isolate LGR-4327): 8.23% | activity at 10 µM ([6]; read-out: Pyocyanin production relative to Control, clinical isolate LGR-4328): 27.7% | activity at 10 µM ([6]; read-out: Pyocyanin production relative to Control, clinical isolate LGR-4330): 33.3% | activity at 10 µM ([6]; read-out: Pyocyanin production relative to Control, clinical isolate LGR-4331 (first section, r117)): 12.7% | activity at 10 µM ([6]; read-out: Pyocyanin production relative to Control, clinical isolate LGR-4331 (second section, r140)): 5.55% | activity at 10 µM ([6]; read-out: Pyocyanin production relative to Control, clinical isolate LGR-4333): 10.5% | activity at 10 µM ([6]; read-out: Pyocyanin production relative to Control, clinical isolate LGR-4343): 12.2% | activity at 10 µM ([6]; read-out: Pyocyanin production relative to Control, clinical isolate LGR-4344): 12.7% | activity at 10 µM ([6]; read-out: Pyocyanin production relative to Control, clinical isolate LGR-4348): 8.7% | activity at 10 µM ([6]; read-out: Pyocyanin production relative to Control, clinical isolate LGR-4356): 10.8% | activity at 10 µM ([6]; read-out: Pyocyanin production relative to Control, clinical isolate LGR-4362): 13.9% | activity at 10 µM ([6]; read-out: Pyocyanin production relative to Control, clinical isolate LGR-4363): 17.7% | activity at 10 µM ([6]; read-out: Pyocyanin production relative to Control, clinical isolate LGR-4364 (first section, r326)): 17.2% | activity at 10 µM ([6]; read-out: Pyocyanin production relative to Control, clinical isolate LGR-4364 (second section, r349)): 19.4% | activity at 10 µM [7]: 43.6% | activity at 10 µM [8]: 34.2% | 2-AA ([9]; Compound 4.88e-8 M): 20.87 and 7.96 and 12.86 | DHQ ([9]; Compound 4.88e-8 M): 15.28 and 24.13 and 25.25 | HHQ ([9]; Compound 4.88e-8 M): -10.38 and -9.83 and -4.34 | HQNO ([9]; Compound 4.88e-8 M): 23.03 and 20.64 and 19.09 | 2-AA ([9]; Compound 9.77e-8 M): 21.63 and 8.61 and -0.13 | DHQ ([9]; Compound 9.77e-8 M): 23.53 and 26.23 and 29.13 | HHQ ([9]; Compound 9.77e-8 M): 0.19 and 2.23 and -9.33 | HQNO ([9]; Compound 9.77e-8 M): 18.24 and 19.63 and 16.60 | PQS ([9]; Compound 9.77e-8 M): 1.00 and -2.02 and -4.38 | 2-AA ([9]; Compound 1.95e-7 M): 4.17 and 23.60 and 8.88 | DHQ ([9]; Compound 1.95e-7 M): 24.27 and 28.60 and 33.04 | HHQ ([9]; Compound 1.95e-7 M): -0.13 and 9.98 and 9.62 | HQNO ([9]; Compound 1.95e-7 M): 22.51 and 25.08 and 21.13 | 2-AA ([9]; Compound 3.91e-7 M): 26.65 and 26.00 and 18.02 | DHQ ([9]; Compound 3.91e-7 M): 19.73 and 32.57 and 33.17 | HHQ ([9]; Compound 3.91e-7 M): 5.11 and 8.17 and 11.07 | HQNO ([9]; Compound 3.91e-7 M): 30.53 and 30.32 and 29.72 | PQS ([9]; Compound 3.91e-7 M): -1.07 and -0.58 and 0.13 | 2-AA ([9]; Compound 7.81e-7 M): 26.65 and 26.00 and 18.02 | DHQ ([9]; Compound 7.81e-7 M): 19.73 and 32.57 and 33.17 | HHQ ([9]; Compound 7.81e-7 M): 5.11 and 8.17 and 11.07 | HQNO ([9]; Compound 7.81e-7 M): 30.53 and 30.32 and 29.72 | PQS ([9]; Compound 7.81e-7 M): -1.07 and -0.58 and 0.13 | 2-AA ([9]; Compound 1.56e-6 M): 57.52 and 53.71 and 61.03 | DHQ ([9]; Compound 1.56e-6 M): 42.56 and 47.41 and 47.02 | HQNO ([9]; Compound 1.56e-6 M): 65.26 and 66.09 and 66.02 | PQS ([9]; Compound 1.56e-6 M): 20.92 and 18.95 and 23.15 | 2-AA ([9]; Compound 3.13e-6 M): 77.80 and 71.94 and 73.15 | DHQ ([9]; Compound 3.13e-6 M): 23.18 and 25.25 and 33.98 | HHQ ([9]; Compound 3.13e-6 M): 18.71 and 27.16 and 24.99 | HQNO ([9]; Compound 3.13e-6 M): 83.76 and 83.46 and 82.00 | PQS ([9]; Compound 3.13e-6 M): 64.68 and 63.03 and 59.62 | 2-AA ([9]; Compound 6.25e-6 M): 94.51 and 93.72 and 94.23 | DHQ ([9]; Compound 6.25e-6 M): 82.36 and 85.39 and 83.09 | HHQ ([9]; Compound 6.25e-6 M): 97.83 and 98.02 and 97.82 | HQNO ([9]; Compound 6.25e-6 M): 95.97 and 95.46 and 95.76 | PQS ([9]; Compound 6.25e-6 M): 95.61 and 95.53 and 95.05 | 2-AA ([9]; Compound 1.25e-5 M): 96.17 and 96.56 and 95.88 | DHQ ([9]; Compound 1.25e-5 M): 89.15 and 89.66 and 90.01 | HHQ ([9]; Compound 1.25e-5 M): 98.67 and 99.17 and 97.08 | HQNO ([9]; Compound 1.25e-5 M): 97.36 and 97.63 and 97.60 | PQS ([9]; Compound 1.25e-5 M): 98.30 and 97.73 and 97.38 | 2-AA ([9]; Compound 2.5e-5 M): 96.54 (2×) and 95.16 | DHQ ([9]; Compound 2.5e-5 M): 90.35 and 91.27 and 89.56 | HHQ ([9]; Compound 2.5e-5 M): 99.13 (2×) and 96.58 | HQNO ([9]; Compound 2.5e-5 M): 97.58 and 97.87 and 97.81 | PQS ([9]; Compound 2.5e-5 M): 98.11 and 97.67 and 97.24 | 2-AA ([9]; Compound 5e-5 M): 97.65 and 97.17 and 97.36 | DHQ ([9]; Compound 5e-5 M): 92.04 and 92.63 and 92.02 | HHQ ([9]; Compound 5e-5 M): 98.82 and 99.10 and 99.16 | HQNO ([9]; Compound 5e-5 M): 98.11 and 98.35 and 97.80 | PQS ([9]; Compound 5e-5 M): 97.51 and 97.36 and 96.79 | AA ([9]; Compound 1.25E-05 M): 599.608 and 615.624 and 726.139 | AA ([9]; Compound 1.56E-06 M): 43.3838 and 42.5844 and 52.2801 | AA ([9]; Compound 1.95E-07 M): 66.4944 and 66.9002 and 61.8554 | AA ([9]; Compound 2.50E-05 M): 648.607 and 690.995 and 748.985 | AA ([9]; Compound 3.13E-06 M): 37.3675 and 38.4724 and 34.81 | AA ([9]; Compound 4.88E-08 M): 60.2138 and 71.5203 and 96.3706 | AA ([9]; Compound 5.00E-05 M): 538.963 and 599.424 and 657.09 | AA ([9]; Compound 6.25E-06 M): 537.56 and 609.034 and 598.829 | AA ([9]; Compound 7.81E-07 M): 70.2961 and 63.8933 and 86.4668 | AA ([9]; Compound 9.77E-08 M): 72.0385 and 90.409 and 103.511 | activity at 50 µM ([9]; PA14, read-out: % Production 2-AA): 7% | activity at 50 µM ([9]; PA14, read-out: % Production AA): 832% | activity at 50 µM ([9]; PA14, read-out: % Production DHQ): 7% | activity at 50 µM ([9]; PA14, read-out: % Production HHQ): 1% | activity at 50 µM ([9]; PA14, read-out: % Production HQNO): 14% | activity at 50 µM ([9]; PA14, read-out: % Production PQS): 4% | IC50 ([9]; PA14, read-out: AA, dose-dependent production (IC50 curve)): 4.7 µM | inhibition at 50 µM ([9]; PA14, read-out: HHQ production inhibition): 89 to 99% | inhibition at 50 µM ([9]; PA14, read-out: HQNO production inhibition): 40 to 92% | IC50 ([9]; PA14, read-out: IC50 against 2-AA production): 1.5 µM | IC50 ([9]; PA14, read-out: IC50 against DHQ production): 4.14 µM | IC50 ([9]; PA14, read-out: IC50 against HHQ production): 3.1 µM | IC50 ([9]; PA14, read-out: IC50 against HQNO production): 1.3 µM | IC50 ([9]; PA14, read-out: IC50 against PQS production): 2.1 µM | inhibition at 50 µM ([9]; PA14, read-out: PQS production inhibition): 76 to 97% | inhibition at 50 µM ([9]; PA14, read-out: inhibition of 2-AA production): 82 to 95% | inhibition at 50 µM ([9]; PA14, read-out: inhibition of DHQ production): 82 to 96%
